According to US4731451A, “N-((2-oxo-3(2H)benzothiazolyl)methyl)-2-chloroacetanilides” (Monsanto Company, priority 1980, dated 1988):

Columns and labels:
Format in all cases: in vivo
[1] = test system: Rice; test: Percent inhibition in transplanted rice (Table VI)
Text: In Table VI, data is presented showing the effect of said compound on the major Asian rice weeds Echinochloa crusgalli (EC), Monochoria vaginalis (MV), Cyperus serotinus (CS), Eleocharis kuroguwai (EK) and Sagittaria trifolia (ST) in transplanted rice at rates within the range of 0.25-2.0 lb/A (0.28-2.24 kg/ha); observations were made 18 days after treatment.

[2] = test system: Barnyardgrass; test: Pre-emergent herbicidal activity (Table II); settings: 2-3 weeks; note: ranges in brackets are in %
Procedure, shortened: (§1)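 Pre-emergence soil incorporation: compound (solvent or wettable powder suspension) mixed into cover soil over seeds/propagules; greenhouse, subirrigation; percent injury scored on fixed scale at ~2-3 wk after seeding.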

[3] = test system: Lambsquarters; test: Pre-emergent herbicidal activity (Table II); settings: 2-3 weeks; note: ranges in brackets are in %
Procedure, shortened: as §1

[4] = test system: Downy Brome; test: Pre-emergent herbicidal activity (Table II); settings: 2-3 weeks; note: ranges in brackets are in %
Procedure, shortened: as §1

[5] = test system: Smartweed; test: Pre-emergent herbicidal activity (Table II); settings: 2-3 weeks; note: ranges in brackets are in %
Procedure, shortened: as §1

[6] = test system: Cocklebur; test: Pre-emergent herbicidal activity (Table II); settings: 2-3 weeks; note: ranges in brackets are in %
Procedure, shortened: as §1

[7] = test system: Morningglory; test: Pre-emergent herbicidal activity (Table II); settings: 2-3 weeks; note: ranges in brackets are in %
Procedure, shortened: as §1

[8] = test system: Velvetleaf; test: Pre-emergent herbicidal activity (Table II); settings: 2-3 weeks; note: ranges in brackets are in %
Procedure, shortened: as §1

[9] = test system: Canada Thistle; test: Pre-emergent herbicidal activity (Table II); settings: 2-3 weeks; note: ranges in brackets are in %
Procedure, shortened: as §1

[10] = test system: Yellow Nutsedge; test: Pre-emergent herbicidal activity (Table II); settings: 2-3 weeks; note: ranges in brackets are in %
Procedure, shortened: as §1

[11] = test system: Johnsongrass; test: Pre-emergent herbicidal activity (Table II); settings: 2-3 weeks; note: ranges in brackets are in %
Procedure, shortened: as §1

[12] = test system: Quackgrass; test: Pre-emergent herbicidal activity (Table II); settings: 2-3 weeks; note: ranges in brackets are in %
Procedure, shortened: as §1

[13] = test system: Barnyardgrass; test: Pre-emergent herbicidal activity (Table III); note: ranges in brackets are in %
Procedure, shortened: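 Pre-emergence, soil-incorporated cover layer: known amount of test compound (solvent or wettable powder) mixed into fill soil over seeded pans; greenhouse, bottom-watered; fixed-scale percent-injury rating at ~2-3 wk.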

Structure (SMILES): CC1=C(N(Cn2c(=O)sc3ccccc32)C(=O)CCl)C(C)CCC1 (stereo not drawn) [Example 1, N-(2,6-dimethyl-1-cyclohexen-1-yl)-N-[(2-oxo-3(2H)-benzothiazolyl)methyl]-2-chloroacetamide]
- inhibition at 280 g/ha ([1]; Oryza sativa, 432 h, transplanted rice, 0.28 kg/ha, 18 days after treatment): 0%
- inhibition at 560 g/ha ([1]; Oryza sativa, 432 h, transplanted rice, 0.56 kg/ha, 18 days after treatment): 0%
- inhibition at 1120 g/ha ([1]; Oryza sativa, 432 h, transplanted rice, 1.12 kg/ha, 18 days after treatment): 0%
- inhibition at 2240 g/ha ([1]; Oryza sativa, 432 h, transplanted rice, 2.24 kg/ha, 18 days after treatment): 10%
- rice injury (rice safety) ([1]; at 2.24 kg/ha or more): ≤ 15%
- Herbicidal rating ([2]; 5.6 kg/ha): 3 (75-100)
- Herbicidal rating ([2]; 11.0 kg/ha): 3 (75-100)
- Herbicidal rating ([3]; 5.6 kg/ha): 1 (25-49)
- Herbicidal rating ([3]; 11.0 kg/ha): 0 (0-24)
- Herbicidal rating ([4]; 5.6 kg/ha): 2 (50-74)
- Herbicidal rating ([4]; 11.0 kg/ha): 2 (50-74)
- Herbicidal rating ([5]; 5.6 kg/ha): 1 (25-49)
- Herbicidal rating ([5]; 11.0 kg/ha): 3 (75-100)
- Herbicidal rating ([6]; 5.6 kg/ha): 1 (25-49)
- Herbicidal rating ([6]; 11.0 kg/ha): 0 (0-24)
- Herbicidal rating ([7]; 5.6 kg/ha): 2 (50-74)
- Herbicidal rating ([7]; 11.0 kg/ha): 2 (50-74)
- Herbicidal rating ([8]; 5.6 kg/ha): 0 (0-24)
- Herbicidal rating ([8]; 11.0 kg/ha): 0 (0-24)
- Herbicidal rating ([9]; 5.6 kg/ha): 0 (0-24)
- Herbicidal rating ([9]; 11.0 kg/ha): 0 (0-24)
- Herbicidal rating ([10]; 5.6 kg/ha): 0 (0-24)
- Herbicidal rating ([10]; 11.0 kg/ha): 2 (50-74)
- Herbicidal rating ([11]; 5.6 kg/ha): 0 (0-24)
- Herbicidal rating ([11]; 11.0 kg/ha): 3 (75-100)
- Herbicidal rating ([12]; 5.6 kg/ha): 2 (50-74)
- Herbicidal rating ([12]; 11.0 kg/ha): 2 (50-74)
- Herbicidal rating ([13]; 0.0056 kg/ha): 3 (75-100)
- Herbicidal rating ([13]; 0.0112 kg/ha): 3 (75-100)
- Herbicidal rating ([13]; 0.056 kg/ha): 3 (75-100)
- Herbicidal rating ([13]; 0.28 kg/ha): 3 (75-100)
- Herbicidal rating ([13]; 1.12 kg/ha): 3 (75-100)
- Herbicidal rating ([13]; 5.6 kg/ha): 3 (75-100)
